Our source for the DC50 and Emax values is patent US12559492B2, “BRAF degraders” (C4 Therapeutics, Inc., priority 2020, dated 2026).

The assay deals with BRAF^V600E protein (Homo sapiens, UniProt P15056, V600E). Description: HiBiT cellular BRAF V600E degradation assay. The conditions noted are these: 24 h incubation; for DC50: A375.10 cells (HiBiT tag knocked in at N-terminal of BRAF V600E), concentration at which 50% of total cellular BRAF V600E is degraded; for Emax: A375.10 cells, Emax = amount of residual protein remaining in the cell after compound treatment, read-out: HiBit 24 h Emax. Format: cell-based. On the technique in general: HiBiT is a short tag that completes a luciferase, so light tracks the accessible tagged protein.

Structures are written as SMILES.

Sequence of BRAF^V600E protein (P15056 whole entry V600E): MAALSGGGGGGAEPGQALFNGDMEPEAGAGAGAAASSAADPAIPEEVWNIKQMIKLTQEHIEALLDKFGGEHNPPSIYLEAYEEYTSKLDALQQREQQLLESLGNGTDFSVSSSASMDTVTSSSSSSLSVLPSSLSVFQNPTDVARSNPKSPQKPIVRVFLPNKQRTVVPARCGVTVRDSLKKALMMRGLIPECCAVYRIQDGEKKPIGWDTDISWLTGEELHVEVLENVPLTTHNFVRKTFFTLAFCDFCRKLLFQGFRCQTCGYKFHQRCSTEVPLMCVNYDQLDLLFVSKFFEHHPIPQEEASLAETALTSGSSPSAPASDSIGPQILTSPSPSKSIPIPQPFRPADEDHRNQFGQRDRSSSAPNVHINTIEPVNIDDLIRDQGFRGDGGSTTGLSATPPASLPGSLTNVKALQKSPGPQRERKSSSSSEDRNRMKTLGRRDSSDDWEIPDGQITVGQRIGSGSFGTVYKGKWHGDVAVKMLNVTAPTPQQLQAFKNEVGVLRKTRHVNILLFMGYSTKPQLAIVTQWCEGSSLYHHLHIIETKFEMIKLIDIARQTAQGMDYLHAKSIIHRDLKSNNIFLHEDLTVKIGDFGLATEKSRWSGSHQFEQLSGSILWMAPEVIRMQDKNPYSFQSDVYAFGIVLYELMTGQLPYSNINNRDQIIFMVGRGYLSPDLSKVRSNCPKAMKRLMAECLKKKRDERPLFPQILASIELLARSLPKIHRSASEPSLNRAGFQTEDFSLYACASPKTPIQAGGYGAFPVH

For orientation: DC50 means the midpoint of the concentration-degradation curve. For orientation: Emax means the maximal effect, on the per cent scale that the assay sets. Consider `CCN(C)S(=O)(=O)Nc1ccc(F)c(C(=O)c2c[nH]c3ncc(-c4ccc(N5CCC(NC(=O)CN6CCC(c7ccc(OC8CCC(=O)NC8=O)cn7)CC6)CC5)nc4)cc23)c1F` (stereo not shown) [Example A65, 2-[4-[5-(2,6-Dioxopiperidin-3-yl)oxypyridin-2-yl]piperidin-1-yl]-N-[1-[5-[3-[3-[[ethyl(methyl)sulfamoyl]amino]-2,6-difluorobenzoyl]-1H-pyrrolo[2,3-b]pyridin-5-yl]pyridin-2-yl]piperidin-4-yl]acetamide;formic acid], for which the DC50 worked out at 151 nM and the Emax was 18%.

As to `O=C1CCC(Nc2ccc(C3CCN(CC(=O)N4CCN(c5ccc(-c6cnc7[nH]cc(C(=O)c8c(F)ccc(NS(=O)(=O)N9CCCC9)c8F)c7c6)cn5)CC4)CC3)cc2)C(=O)N1` (stereo not shown) [Example A72, N-[3-[5-[6-[4-[2-[4-[4-[(2,6-Dioxopiperidin-3-yl)amino]phenyl]piperidin-1-yl]acetyl]piperazin-1-yl]pyridin-3-yl]-1H-pyrrolo[2,3-b]pyridine-3-carbonyl]-2,4-difluorophenyl]pyrrolidine-1-sulfonamide], the 50% degradation concentration (DC50) was 4.47 nM and the Emax worked out at 16.1%.

As to `CCN(C)S(=O)(=O)Nc1ccc(F)c(C(=O)c2c[nH]c3ncc(-c4ccc(N5CCN(C(=O)CC6(O)CCN(c7cc(Cl)c(N8CCC(=O)NC8=O)cc7Cl)CC6)CC5)nc4)cc23)c1F` [Example 218, 5-[6-[4-[2-[1-[2,5-dichloro-4-(2,4-dioxohexahydropyrimidin-1-yl)phenyl]-4-hydroxy-4-piperidyl]acetyl]piperazin-1-yl]-3-pyridyl]-3-[3-[[ethyl(methyl)sulfamoyl]amino]-2,6-difluoro-benzoyl]-1H-pyrrolo[2,3-b]pyridine], the half-maximal degradation concentration (DC50) turned out to be 4.1 nM and the maximum response (Emax) amounted to 6.24%.

Turning to `CCN(C)S(=O)(=O)Nc1ccc(F)c(C(=O)c2c[nH]c3ncc(-c4cnc(N5CCN(C(=O)CN6CCC(c7ccc(NC8CCC(=O)NC8=O)cc7C(F)F)CC6)CC5)nc4)cc23)c1F` (stereo not shown) [Example 39, 5-[2-[4-[2-[4-[2-(difluoromethyl)-4-[(2,6-dioxo-3-piperidyl)amino]phenyl]-1-piperidyl]acetyl]piperazin-1-yl]pyrimidin-5-yl]-3-[3-[[ethyl(methyl)sulfamoyl]amino]-2,6-difluoro-benzoyl]-1H-pyrrolo[2,3-b]pyridine], the DC50 stood at 10.2 nM and the maximal effect (Emax) was 8.74%.

Take `CCN(C)S(=O)(=O)Nc1ccc(Cl)c(C(=O)c2c[nH]c3ncc(-c4ccc(N5CCN(C(=O)CC6(O)CCN(c7ccc(NC8CCC(=O)NC8=O)cc7F)CC6)CC5)nc4)cc23)c1F` (stereo not shown) [Example 201, 3-[6-chloro-3-[[ethyl(methyl)sulfamoyl]amino]-2-fluoro-benzoyl]-5-[6-[4-[2-[1-[4-[(2,6-dioxo-3-piperidyl)amino]-2-fluoro-phenyl]-4-hydroxy-4-piperidyl]acetyl]piperazin-1-yl]-3-pyridyl]-1H-pyrrolo[2,3-b]pyridine]: the 50% degradation concentration (DC50) stood at 4.19 nM and the Emax is 6.67%.

Take `CC(C)S(=O)(=O)Nc1ccc(F)c(C(=O)c2c[nH]c3ncc(-c4cnc(N5CCN(C(=O)CN6CCC(c7ccc(NC8CCC(=O)NC8=O)cc7)CC6)CC5)nc4)cc23)c1F` (stereo not shown) [Example 5, N-[3-[5-[2-[4-[2-[4-[4-[(2,6-dioxo-3-piperidyl)amino]phenyl]-1-piperidyl]acetyl]piperazin-1-yl]pyrimidin-5-yl]-1H-pyrrolo[2,3-b]pyridine-3-carbonyl]-2,4-difluoro-phenyl]propane-2-sulfonamide]: the DC50 worked out at 3.94 nM and the Emax was found to be 8.8%.

Consider `CCN(C)S(=O)(=O)Nc1ccc(F)c(C(=O)c2c[nH]c3ncc(-c4cnc(N5CC6(CN(C(=O)CN7CCC(c8ccc(NC9CCC(=O)NC9=O)cc8)CC7)C6)C5)nc4)cc23)c1F` (stereo not shown) [Example 64, 5-[2-[2-[2-[4-[4-[(2,6-dioxo-3-piperidyl)amino]phenyl]-1-piperidyl]acetyl]-2,6-diazaspiro[3.3]heptan-6-yl]pyrimidin-5-yl]-3-[3-[[ethyl(methyl)sulfamoyl]amino]-2,6-difluoro-benzoyl]-1H-pyrrolo[2,3-b]pyridine], for which the 50% degradation concentration (DC50) worked out at 7.21 nM and the Emax came to 9.33%.

Consider `CCN(C)S(=O)(=O)Nc1cccc(C(=O)c2c[nH]c3ncc(-c4ccc(N5CCN(C(=O)CC6CCN(c7ccc(NC8CCC(=O)NC8=O)cc7F)CC6)CC5)nc4)cc23)c1F` (stereo not shown) [Example 111, 5-[6-[4-[2-[1-[4-[(2,6-dioxo-3-piperidyl)amino]-2-fluoro-phenyl]-4-piperidyl]acetyl]piperazin-1-yl]-3-pyridyl]-3-[3-[[ethyl(methyl)sulfamoyl]amino]-2-fluoro-benzoyl]-1H-pyrrolo[2,3-b]pyridine], for which the DC50 was 9.66 nM and the Emax came to 15.6%.

Turning to `CCN(C)S(=O)(=O)Nc1ccc(F)c(C(=O)c2c[nH]c3ncc(-c4cnc(N5CCN(C(=O)CN6CCC(c7ccc(CN8CCC(=O)NC8=O)cc7)CC6)CC5)nc4)cc23)c1F` [Example 32, 5-[2-[4-[2-[4-[4-[(2,4-dioxohexahydropyrimidin-1-yl)methyl]phenyl]-1-piperidyl]acetyl]piperazin-1-yl]pyrimidin-5-yl]-3-[3-[[ethyl(methyl)sulfamoyl]amino]-2,6-difluoro-benzoyl]-1H-pyrrolo[2,3-b]pyridine], the 50% degradation concentration (DC50) came to 35 nM and the maximum response (Emax) was 10.6%.

With `CCN(C)S(=O)(=O)Nc1ccc(F)c(C(=O)c2c[nH]c3ncc(-c4ccc(N5CCN(C(=O)CC6(O)CCN(c7ccc(NC8CCC(=O)NC8=O)cc7F)C6)CC5)cc4)cc23)c1F` (stereo not shown) [Example 87, 5-[4-[4-[2-[1-[4-[(2,6-dioxo-3-piperidyl)amino]-2-fluoro-phenyl]-3-hydroxy-pyrrolidin-3-yl]acetyl]piperazin-1-yl]phenyl]-3-[3-[[ethyl(methyl)sulfamoyl]amino]-2,6-difluoro-benzoyl]-1H-pyrrolo[2,3-b]pyridine], the half-maximal degradation concentration (DC50) came to 13.3 nM and the maximal effect (Emax) stood at 9.64%.

On to `CCN(C)S(=O)(=O)Nc1ccc(F)c(C(=O)c2c[nH]c3ncc(-c4cnc(N5CCN(C(=O)CN6CCC(c7ccc(N[C@@H]8CCC(=O)NC8=O)cc7)CC6)CC5)nc4)cc23)c1F` [Example 26, 5-[2-[4-[2-[4-[4-[[(3R)-2,6-dioxo-3-piperidyl]amino]phenyl]-1-piperidyl]acetyl]piperazin-1-yl]pyrimidin-5-yl]-3-[3-[[ethyl(methyl)sulfamoyl]amino]-2,6-difluoro-benzoyl]-1H-pyrrolo[2,3-b]pyridine], for which the DC50 amounted to 4.55 nM and the Emax is 7%.

Take `CCN(C)S(=O)(=O)Nc1ccc(F)c(C(=O)c2c[nH]c3ncc(-c4cnc(N5CCN(C(=O)CC6CCC(c7ccc(NC8CCC(=O)NC8=O)cc7)CC6)CC5)nc4)cc23)c1F` (single isomer, unassigned) [Example 35, 5-[2-[4-[2-[4-[4-[(2,6-dioxo-3-piperidyl)amino]phenyl]cyclohexyl]acetyl]piperazin-1-yl]pyrimidin-5-yl]-3-[3-[[ethyl(methyl)sulfamoyl]amino]-2,6-difluoro-benzoyl]-1H-pyrrolo[2,3-b]pyridine]: the 50% degradation concentration (DC50) stood at 25 nM and the maximal effect (Emax) was found to be 23.1%.

For the compound `CCN(C)S(=O)(=O)Nc1ccc(F)c(C(=O)c2c[nH]c3ncc(-c4cnc(N5CC[C@@H](C(=O)N6CCC(c7ccc(NC8CCC(=O)NC8=O)cc7)CC6)C5)nc4)cc23)c1F` (stereo partly drawn) [Example 129, 5-[2-[(3R)-3-[4-[4-[(2,6-dioxo-3-piperidyl)amino]phenyl]piperidine-1-carbonyl]pyrrolidin-1-yl]pyrimidin-5-yl]-3-[3-[[ethyl(methyl)sulfamoyl]amino]-2,6-difluoro-benzoyl]-1H-pyrrolo[2,3-b]pyridine], it took 5.11 nM to reach half-maximal degradation (DC50) and the maximal effect (Emax) was determined as 13.8%.

For the compound `CCN(C)S(=O)(=O)Nc1ccc(F)c(C(=O)c2c[nH]c3ncc(-c4cnc(N5CCN(C(=O)Cc6ccc(N7CCN(C8CCC(=O)NC8=O)C(=O)C7)cc6)CC5)nc4)cc23)c1F` (stereo not shown) [Example 50, 5-[2-[4-[2-[4-[4-(2,6-dioxo-3-piperidyl)-3-oxo-piperazin-1-yl]phenyl]acetyl]piperazin-1-yl]pyrimidin-5-yl]-3-[3-[[ethyl(methyl)sulfamoyl]amino]-2,6-difluoro-benzoyl]-1H-pyrrolo[2,3-b]pyridine], it took 4.57 nM to reach half-maximal degradation (DC50) and the maximum response (Emax) was found to be 7.42%.

Regarding `CCN(C)S(=O)(=O)Nc1ccc(F)c(C(=O)c2c[nH]c3ncc(-c4ccc(N5CCN(C(=O)CN6CCC(c7ccc(N8CCC(=O)NC8=O)cc7)CC6)CC5)nc4)cc23)c1F` [Example A104, 5-[6-[4-[2-[4-[4-(2,4-Dioxo-1,3-diazinan-1-yl)phenyl]piperidin-1-yl]acetyl]piperazin-1-yl]pyridin-3-yl]-3-[3-[[ethyl(methyl)sulfamoyl]amino]-2,6-difluorobenzoyl]-1H-pyrrolo[2,3-b]pyridine], it took 10 nM to reach half-maximal degradation (DC50) and the maximal effect (Emax) is 7%.

As for `CC(C)S(=O)(=O)Nc1ccc(F)c(C(=O)c2c[nH]c3ncc(-c4cnc(N5CCN(C(=O)CN6CCC(c7ccc(OC8CCC(=O)NC8=O)cc7)CC6)CC5)nc4)cc23)c1F` (stereo not shown) [Example 7, N-[3-[5-[2-[4-[2-[4-[4-[(2,6-dioxo-3-piperidyl)oxy]phenyl]-1-piperidyl]acetyl]piperazin-1-yl]pyrimidin-5-yl]-1H-pyrrolo[2,3-b]pyridine-3-carbonyl]-2,4-difluoro-phenyl]propane-2-sulfonamide], the DC50 came out at 12.5 nM and the Emax was determined as 10.3%.

In the case of `CCN(C)S(=O)(=O)Nc1ccc(F)c(C(=O)c2c[nH]c3ncc(-c4ccc(N5CCN(C(=O)CN6CCC(c7ccc(NC8CCC(=O)NC8=O)cc7)CC6)CC5)cc4)cc23)c1F` (stereo not shown) [Example A36, 5-[4-[4-[2-[4-[4-[(2,6-Dioxopiperidin-3-yl)amino]phenyl]piperidin-1-yl]acetyl]piperazin-1-yl]phenyl]-3-[3-[[ethyl(methyl)sulfamoyl]amino]-2,6-difluorobenzoyl]-1H-pyrrolo[2,3-b]pyridine], the DC50 amounted to 3 nM and the maximal effect (Emax) was determined as 10%.
